From PubChem BioAssay (NCI)
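Growth conditions: 96-well plates. Treatment: test compound, 48 hours, 5 concentrations. Analysis: linear interpolation between bracketing concentrations; unreached endpoints set to highest concentration. TGI denotes the concentration required for complete inhibition of growth.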

Legend:
Assay in all cases: inhibition of tumour cell growth, NCI panel, 48 h
[1] = system: NCI-H460 lung
[2] = system: HCT-15 colon
[3] = system: DU-145 prostate
[4] = system: HS 578T breast
[5] = system: NCI/ADR-RES ovarian
[6] = system: A549 NSCLC
[7] = system: M14 melanoma
[8] = system: 786-0 renal
[9] = system: PC-3 prostate
[10] = system: IGROV1 ovarian
[11] = system: EKVX NSCLC
[12] = system: SK-OV-3 ovarian
[13] = system: HOP-92 NSCLC
[14] = system: SNB-75 CNS
[15] = system: KM12 colon
[16] = system: K-562 leukemia
[17] = system: U251 CNS
[18] = system: NCI-H522 lung
[19] = system: MOLT-4 leukemia
[20] = system: LOX IMVI melanoma
[21] = system: NCI-H226 lung
[22] = system: SK-MEL-2 melanoma
[23] = system: ACHN renal
[24] = system: NCI-H23 lung
[25] = system: SF-268 CNS
[26] = system: SF-539 CNS
[27] = system: CCRF-CEM leukemia
[28] = system: MDA-MB-231 breast
[29] = system: SK-MEL-28 melanoma
[30] = system: CAKI-1 renal
[31] = system: COLO 205 colon
[32] = system: OVCAR-3 ovarian
[33] = system: HCC-2998 colon
[34] = system: SN12C renal
[35] = system: HCT-116 colon
[36] = system: HT29 colon
[37] = system: SW-620 colon
[38] = system: MCF7 breast
[39] = system: HL-60(TB) leukemia
[40] = system: SF-295 CNS
[41] = system: TK-10 renal
[42] = system: RXF 393 renal
[43] = system: T-47D breast
[44] = system: SNB-19 CNS
[45] = system: OVCAR-5 ovarian
[46] = system: SR leukemia
[47] = system: MDA-N
[48] = system: HOP-62 NSCLC
[49] = system: UACC-62 melanoma
[50] = system: OVCAR-4 ovarian
[51] = system: SK-MEL-5 melanoma
[52] = system: RPMI-8226 leukemia
[53] = system: MDA-MB-435
[54] = system: UO-31 renal
[55] = system: OVCAR-8 ovarian
[56] = system: UACC-257 melanoma

Measured: TGI

COc1ccc(/C(Br)=C2\OC(=O)c3ccccc32)cc1
> 10 µM: all assays above
